Data reported in patent US4173648A, “3β-Hydroxy-18β-olean-9-en-30-oic acids” (I.S.F. SpA, priority 1977, dated 1979).
Structures can show the parent of a compound that is named as a salt.

Assays:
[1] = test system: male Swiss mice; assay: anti-ulcer action, cold stress by immersion in water and contention stress (method of C. J. Pfeiffer); format: in vivo, mouse (Swiss); settings: controls = 100
Method: The test was carried out on male Swiss mice with an average body weight of 23 g. subjected to cold stress by immersion in water and to a contention stress according to the method of C. J. Pfeiffer ("Peptic ulcer", Munksgaard, 1971, page 84). Three dosage levels of 25, 50 and 100 mg/kg and 15 animals for each dosage level were used.
The anti-ulcer action of the compounds was evaluated by calculating the percentage average inhibition, which indicates the inhibition of the ulcer seriousness index in the treated animals, taking 100 as the seriousness index of the controls.

[2] = LD50 in mice per os (acute toxicity); settings: mouse, in vivo, po
[3] = test system: male Wistar rats; assay: anti-diuretic action, urinary sodium and potassium (method of F. M. Sullivan); format: in vivo, rat (Wistar); settings: for Na+/K+ ratio (urine): gastric probe, urine of five hours after treatment; for % inhibition of the ratio Na+/K+: ratio in controls = 100
Method: The urine produced in the five hours after treatment are collected and the potassium and sodium contents are determined. The tests were carried out at two dosage levels, 30 and 60 mg/kg, using, for each dosage level, 8 pairs of animals.

CC1(C)[C@@H](OC(=O)CCC(=O)O)CC[C@]2(C)C3=CCC4[C@@H]5C[C@@](C)(C(=O)O)CC[C@]5(C)CC[C@@]4(C)[C@]3(C)CC[C@@H]12 (stereo partly drawn) [Disodium salt of 3β-(3-carboxypropionoxy)-18β-olean-9-en-30-oic acid]
% average inhibition (of the ulcer seriousness index) ([1]; 25 mg/kg os): 13%
% average inhibition (of the ulcer seriousness index) ([1]; 50 mg/kg os): 22.5%
% average inhibition (of the ulcer seriousness index) ([1]; 100 mg/kg os): 70.5%
LD50 [2]: 1000 mg/kg
Na+/K+ ratio (urine) ([3]; 30 mg/kg): 3.18
% inhibition of the ratio Na+/K+ ([3]; 30 mg/kg): 0%
Na+/K+ ratio (urine) ([3]; 60 mg/kg): 3.59
% inhibition of the ratio Na+/K+ ([3]; 60 mg/kg): -3%

CC1(C)[C@@H](OC(=O)CCC(=O)O)CC[C@]2(C)[C@H]3C(=O)C=C4[C@@H]5C[C@@](C)(C(=O)O)CC[C@]5(C)CC[C@@]4(C)[C@]3(C)CC[C@@H]12 [carbenoxolone, disodium salt of glycycrrhetinic acid 3-hemisuccinate]
% average inhibition (of the ulcer seriousness index) ([1]; 25 mg/kg os): 29.5%
% average inhibition (of the ulcer seriousness index) ([1]; 50 mg/kg os): 29%
% average inhibition (of the ulcer seriousness index) ([1]; 100 mg/kg os): 63.5%
LD50 [2]: 700 mg/kg
Na+/K+ ratio (urine) ([3]; 30 mg/kg): 1.81
% inhibition of the ratio Na+/K+ ([3]; 30 mg/kg): 43%
Na+/K+ ratio (urine) ([3]; 60 mg/kg): 1.24
% inhibition of the ratio Na+/K+ ([3]; 60 mg/kg): 64%
